Reference: the supplement of paper PMC6045584
± gives the standard deviation of the averaged measurements.

What was measured:
ERLOTINIB = compound: C#Cc1cccc(Nc2ncnc3cc(OCCOC)c(OCCOC)cc23)c1 [ERLOTINIB]; experiment: surviving fraction relative to DMSO-only wells; higher = less growth inhibition; conditions: exposure time: 5 days
How it was run: (§1)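 Lines were retained only if, across three screens, replicate Pearson r was >0.7 and median Z' was >0.3. Viability was measured as CellTiter-Glo luminescence and reported as surviving fraction relative to the median of DMSO-only wells. Readings followed 10 minutes at room temperature, after log-phase tumour cells seeded at 250–500 per well in 384-well plates had been exposed, from 24 hours after seeding, continuously for five days to inhibitors at 0.5, 1, 5, 10, 50, 100, 500 and 1000 nM.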

[1] = compound: Cc1nc(Nc2n[nH]c3c2CN(C(=O)N[C@H](CN(C)C)c2ccccc2)C3(C)C)c2sccc2n1; experiment: as above; conditions: exposure time: 5 days
How it was run: as §1

Test System | surviving fraction (ERLOTINIB; 0.5 nM) | surviving fraction (ERLOTINIB; 1 nM) | surviving fraction (ERLOTINIB; 5 nM) | surviving fraction (ERLOTINIB; 10 nM) | surviving fraction (ERLOTINIB; 50 nM) | surviving fraction (ERLOTINIB; 100 nM) | surviving fraction (ERLOTINIB; 500 nM) | surviving fraction (ERLOTINIB; 1000 nM) | surviving fraction ([1]; 0.5 nM) | surviving fraction ([1]; 1 nM) | surviving fraction ([1]; 5 nM) | surviving fraction ([1]; 10 nM) | surviving fraction ([1]; 50 nM) | surviving fraction ([1]; 100 nM) | surviving fraction ([1]; 500 nM) | surviving fraction ([1]; 1000 nM)
HCC1954 BREAST | 1.05 ± 0.059 | 1.14 ± 0.082 | 1.35 ± 0.075 | 1.35 ± 0.23 | 0.782 ± 0.23 | 0.708 ± 0.23 | 0.527 ± 0.066 | 0.493 ± 0.092 | 1 ± 0.05 | 0.88 ± 0.12 | 0.43 ± 0.044 | 0.466 ± 0.0085 | 0.487 ± 0.023 | 0.493 ± 0.018 | 0.428 ± 0.028 | 0.253 ± 0.035
HCT15 LARGE INTESTINE | 1.06 ± 0.12 | 1 ± 0.15 | 0.979 ± 0.17 | 0.977 ± 0.078 | 1.1 ± 0.038 | 1.11 ± 0.039 | 1.1 ± 0.044 |  | 0.998 ± 0.043 | 1.019 ± 0.009 | 1.04 ± 0.03 | 1.04 ± 0.011 | 0.869 ± 0.061 | 1.02 ± 0.036 | 0.172 ± 0.013 | 0.428 ± 0.023
HELA CERVIX | 1.06 ± 0.057 | 1.08 ± 0.045 | 1.04 ± 0.089 | 1.05 ± 0.04 | 1.17 ± 0.054 | 1.18 ± 0.028 | 1.25 ± 0.035 | 1.15 ± 0.021 | 1.1 ± 0.061 | 1.11 ± 0.056 | 0.936 ± 0.026 | 0.741 ± 0.02 | 0.4922 ± 0.0018 | 0.478 ± 0.0081 | 0.406 ± 0.016 | 0.341 ± 0.026
HMLE3 BREAST | 1.07 ± 0.021 |  | 1.1 ± 0.038 | 1.07 ± 0.026 |  | 1.17 ± 0.077 | 0.976 ± 0.15 | 0.916 ± 0.013 | 1.01 ± 0.11 | 0.883 ± 0.026 | 0.295 ± 0.02 | 0.144 ± 0.0049 | 0.0967 ± 0.012 | 0.092 ± 0.0036 | 0.066 ± 0.0082 | 0.055 ± 0.002
HMT3552 BREAST | 1.03 ± 0.024 | 1.04 ± 0.036 | 0.994 ± 0.029 | 1.03 ± 0.02 | 1.02 ± 0.064 | 0.957 ± 0.034 | 0.85 ± 0.08 | 0.808 ± 0.053 | 0.986 | 0.77 | 0.376 | 0.287 | 0.219 | 0.212 | 0.17 | 0.136
HOS BONE | 1.038 ± 0.0011 |  | 1.03 ± 0.028 | 1.03 ± 0.022 |  | 1.05 ± 0.0058 | 1.03 ± 0.038 | 0.98 ± 0.046 | 1.02 ± 0.018 | 0.957 ± 0.014 | 0.583 ± 0.02 | 0.409 ± 0.03 | 0.234 ± 0.015 | 0.233 ± 0.0055 | 0.194 ± 0.0038 | 0.112 ± 0.0079
HOSMNG BONE |  | 1 ± 0.041 | 0.915 ± 0.044 | 0.947 ± 0.078 | 0.963 ± 0.1 |  | 1.1 ± 0.064 | 0.957 ± 0.044 | 0.981 ± 0.063 | 0.995 ± 0.065 | 1.02 ± 0.11 | 0.944 ± 0.025 | 0.821 ± 0.042 | 0.622 ± 0.029 | 0.399 ± 0.024 | 0.253 ± 0.018
HS57T BREAST | 1.03 ± 0.086 | 1.02 ± 0.071 | 1.06 ± 0.046 | 1.1 ± 0.052 |  | 1.04 ± 0.074 | 0.999 ± 0.046 | 0.971 ± 0.074 | 0.895 ± 0.062 | 0.685 ± 0.022 | 0.366 ± 0.02 | 0.305 ± 0.019 | 0.287 ± 0.018 | 0.255 ± 0.0075 | 0.151 ± 0.02 | 0.0643 ± 0.0085
HS578T BREAST | 1.18 ± 0.052 | 1.4 ± 0.32 | 1.21 ± 0.22 | 1.23 ± 0.063 | 1.33 ± 0.21 | 1.32 ± 0.16 | 1.28 ± 0.23 | 1.18 ± 0.12 | 0.767 ± 0.024 | 0.713 ± 0.019 | 0.506 ± 0.064 | 0.504 ± 0.05 | 0.374 ± 0.056 | 0.37 ± 0.049 | 0.186 ± 0.029 | 0.095 ± 0.013
HSSYII SYNOVIAL | 0.966 ± 0.066 | 1.03 ± 0.036 | 1.02 ± 0.058 | 1.06 ± 0.031 | 1.03 ± 0.062 | 1.01 ± 0.049 | 1.02 ± 0.063 | 1 ± 0.076 | 0.679 ± 0.029 | 0.789 ± 0.13 | 0.271 ± 0.021 | 0.281 ± 0.0072 | 0.216 ± 0.007 | 0.215 ± 0.018 | 0.0975 ± 0.0058 | 0.138 ± 0.0053
HT1080 SOFT TISSUE |  | 1.05 ± 0.032 | 1.06 ± 0.027 | 1.05 ± 0.026 | 1.024 ± 0.004 | 1.02 ± 0.022 | 1.07 ± 0.066 | 1.03 ± 0.077 | 0.98 ± 0.024 | 0.859 ± 0.018 | 0.295 ± 0.0038 | 0.249 ± 0.013 | 0.194 ± 0.0046 | 0.171 ± 0.0076 | 0.111 ± 0.015 | 0.087 ± 0.0078
HU09 BONE | 1.08 ± 0.11 | 0.986 ± 0.073 | 1.12 ± 0.073 | 1.04 ± 0.1 | 1.11 ± 0.029 | 1.1 ± 0.024 | 1.04 ± 0.061 | 0.965 ± 0.062 | 0.811 ± 0.053 | 0.67 ± 0.084 | 0.473 ± 0.049 | 0.425 ± 0.081 | 0.381 ± 0.046 | 0.339 ± 0.028 | 0.174 ± 0.023 | 0.111 ± 0.007
JIMT1 BREAST | 1 ± 0.012 | 0.994 ± 0.044 |  | 0.9948 ± 0.0084 | 1 ± 0.015 | 1.02 ± 0.076 | 0.809 ± 0.025 | 0.731 ± 0.031 | 0.993 ± 0.035 | 0.985 ± 0.03 | 0.888 ± 0.029 | 0.839 ± 0.047 | 0.559 ± 0.041 | 0.51 ± 0.041 | 0.398 ± 0.029 | 0.323 ± 0.0049
JURKAT HAEMATOPOIETIC AND LYMPHOID TISSUE | 1.05 ± 0.025 |  | 1.05 ± 0.037 | 1.03 ± 0.041 | 0.989 ± 0.035 | 1.01 ± 0.015 | 0.988 ± 0.015 | 1.01 ± 0.038 | 1.01 ± 0.032 | 0.939 ± 0.02 | 0.169 ± 0.0038 | 0.095 ± 0.0044 | 0.0877 ± 0.004 | 0.086 ± 0.001 | 0.06 ± 0.001 | 0.051
KPD BONE | 1.07 ± 0.11 | 1.03 ± 0.042 | 1.06 ± 0.076 | 1.07 ± 0.075 | 1.18 ± 0.035 | 1.11 ± 0.035 | 1.07 ± 0.11 | 1.05 ± 0.096 | 0.632 ± 0.036 | 0.569 ± 0.027 | 0.425 ± 0.042 | 0.344 ± 0.011 | 0.259 ± 0.021 | 0.224 ± 0.027 | 0.0937 ± 0.01 | 0.058 ± 0.0053
LM7 BONE | 1.09 ± 0.1 | 0.989 ± 0.043 | 1.2 ± 0.043 | 1.06 ± 0.051 | 1.23 ± 0.061 | 1.15 ± 0.098 | 0.932 ± 0.058 |  | 0.842 ± 0.039 | 0.674 ± 0.036 | 0.51 ± 0.0046 | 0.457 ± 0.046 | 0.386 ± 0.033 | 0.327 ± 0.036 | 0.115 ± 0.006 | 0.0547 ± 0.0084
MCF7 BREAST | 0.942 ± 0.022 | 0.9629 ± 0.007 | 0.993 ± 0.044 | 0.953 ± 0.053 | 1.084 ± 0.0061 | 1.03 ± 0.018 | 1.03 ± 0.042 |  | 0.89 ± 0.077 | 0.857 ± 0.024 | 0.621 ± 0.036 | 0.746 ± 0.035 | 0.547 ± 0.01 | 0.546 ± 0.022 | 0.395 ± 0.019 | 0.486 ± 0.0057
MDAMB134 BREAST |  | 0.92 ± 0.024 | 0.899 ± 0.018 | 0.91 ± 0.059 | 1.13 ± 0.033 | 1.15 ± 0.17 |  | 1.08 ± 0.088 | 0.805 ± 0.016 | 0.954 ± 0.014 | 0.909 ± 0.029 | 0.924 ± 0.02 | 1.04 ± 0.044 | 1.02 ± 0.017 | 1.13 ± 0.035 | 0.961 ± 0.2
MDAMB157 BREAST | 0.981 ± 0.071 | 0.985 ± 0.11 |  | 0.998 ± 0.056 | 0.97 ± 0.091 | 1.04 ± 0.018 | 0.999 ± 0.073 |  | 0.841 ± 0.14 | 0.792 ± 0.055 | 0.623 ± 0.11 | 0.545 ± 0.019 | 0.405 ± 0.055 | 0.29 ± 0.048 | 0.159 ± 0.013 | 0.119 ± 0.021
MDAMB231 BREAST | 1.01 ± 0.028 | 0.997 ± 0.013 | 1.02 ± 0.019 | 1.02 ± 0.011 | 1.04 ± 0.019 | 1.06 ± 0.027 | 1.06 ± 0.028 | 1.03 ± 0.029 | 0.964 ± 0.023 | 0.923 ± 0.029 | 0.667 ± 0.012 | 0.591 ± 0.019 | 0.474 ± 0.0092 | 0.433 ± 0.022 | 0.205 ± 0.0056 | 0.0829 ± 0.0099
MDAMB361 BREAST | 0.873 ± 0.095 | 0.849 ± 0.05 | 0.83 ± 0.037 | 0.869 ± 0.011 |  |  | 0.913 ± 0.091 | 0.827 ± 0.033 | 1.028 ± 0.0062 | 1.13 ± 0.074 | 1.1 ± 0.065 | 1.02 ± 0.072 | 0.837 ± 0.016 | 0.796 ± 0.054 | 0.5827 ± 0.004 | 0.238 ± 0.0081
MDAMB436 BREAST | 0.987 ± 0.03 | 1.08 ± 0.073 | 1.07 ± 0.091 | 1.05 ± 0.15 | 1.05 ± 0.14 | 0.941 ± 0.049 | 0.932 ± 0.066 | 0.811 ± 0.045 | 0.952 ± 0.044 | 1 ± 0.066 | 0.932 ± 0.07 | 0.856 ± 0.071 | 0.718 ± 0.016 | 0.61 ± 0.061 | 0.507 ± 0.025 | 0.432 ± 0.03
